Assay results from article PMC12055656, “Screening the Pandemic Response Box identifies novel ligands of the Staphylococcus aureus protein arginine kinase, McsB” (Molecular Biology Reports, 2025).

Columns and labels:
[1] = target: T1, Staphylococcus aureus McsB (Staphylococcus aureus, UniProt Q2G0P6); design: CETSA, anti-His western blot, shift of McsB aggregation temperature; conditions: CETSA, aggregation temperature shift; binder
T1 construct: full length, His-tagged, pET-28a(+), expressed in E. coli BL21(DE3), Ni-NTA purified, ~42 kDa; tag kept (anti-His blot); E. coli lysate containing it used for CETSA
T1 sequence (Q2G0P6 whole entry): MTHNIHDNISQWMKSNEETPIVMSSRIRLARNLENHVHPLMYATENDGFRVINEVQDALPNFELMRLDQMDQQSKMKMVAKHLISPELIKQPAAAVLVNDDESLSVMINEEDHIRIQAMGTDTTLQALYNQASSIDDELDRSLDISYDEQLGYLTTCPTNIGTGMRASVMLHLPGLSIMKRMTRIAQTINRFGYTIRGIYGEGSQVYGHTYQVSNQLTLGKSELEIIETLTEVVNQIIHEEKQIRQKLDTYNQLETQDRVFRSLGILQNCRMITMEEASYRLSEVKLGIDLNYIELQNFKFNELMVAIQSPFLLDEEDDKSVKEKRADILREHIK

[2] = target: T1, Staphylococcus aureus McsB; assay: biochemical; design: Thermal shift assay (SYPRO Orange) of purified His-tagged McsB, melting temperature shift versus DMSO; conditions: TSA, purified McsB
Procedure: The thermal shift assay (TSA) was performed by incubating 0.1 µg/µl of purified McsB in assay buffer (50 mM sodium phosphate, 300 mM NaCl, pH 7.4) with 10X SYPRO Orange fluorescent dye (ThermoFisher Scientific, USA) in a final reaction volume of 20 µl. For primary screening, compounds from the Pandemic Response Box were tested in a pooled format (10 compounds per pool at 10 µM each, 40 pools total). Each pool was incubated with the protein-dye mixture for 1 h at 4 °C, followed by thermal denaturation (25–99 °C, at a ramp rate of 0.5 °C/s). Fluorescence was monitored at 470/586 nm (excitation/emission) using a QuantStudio 5 Real-Time PCR System (Applied Biosystems, ThermoFisher Scientific, USA). Compounds from pools that induced a significant increase in McsB melting temperature (Tm) relative to a DMSO control– indicating engagement with the target protein– were further evaluated individually at 10 µM. All Tm values were determined from derivative curves (dF/dT) using Protein Thermal Shift Software v1.4 (ThermoFisher Scientific, USA) and represent the average of at least three independent replicates (n ≥ 3). Recombinant McsB was expressed in E. coli BL21(DE3) cells and purified using Ni-NTA resin. SDS-PAGE and western blot analysis confirmed the isolation of a ~ 42 kDa His-tagged protein (Fig. 1), consistent with previous reports. The Pandemic Response Box was divided into 40 pools containing 10 compounds each and screened for stabilizing ligands of the purified McsB using TSA. Three groups- B4, C3 and E3- produced the most pronounced increases in McsB melting temperature, elevating it from 54.5 °C to 63.1, 64.0 and 62.8 °C, respectively (Fig. 2A). To identify the active compounds, we screened the 30 individual compounds from these pools, and found nine compounds that increased McsB melting temperature by 0.5–1.2 °C (Fig. 2B and C). Of these, seven induced statistically significant shifts, with MMV1593539 yielding the greatest stabilization (ΔTm = 1.2 ± 0.1 °C, p < 0.0001).

| Structure (SMILES) | ΔTagg [1] | ΔTm at 10 µM [2] |
| --- | --- | --- |
| Nc1nc2c(Cc3cccnc3)c[nH]c2c(=O)[nH]1 [MMV1782355] | 0.63 ± 0.54 °C | 0.677 ± 0.098 °C |
| Cn1cc(NC(=O)c2cc(NC(=O)c3ccc(/C=C/c4cnc5ccccc5c4)cc3)cn2C)cc1C(=O)NCCN1CCOCC1 [MMV1634391] | – | 0.473 ± 0.374 °C |
| Nc1nc(-c2ccccc2)nc2[nH]nc(Nc3ccc(C(F)(F)F)cc3)c12 [MMV1633968, 6-phenyl-3-N-[4-(trifluoromethyl)phenyl]-1H-pyrazolo[3,4-d]pyrimidine-3,4-diamine] | – | 0.78 ± 0.081 °C |
| CCCC(=O)OCCc1ccccc1 [MMV1578899, 2-phenylethyl butanoate 2-phenylethyl butanoate] | 0.78 ± 0.339 °C | 0.9 ± 0.412 °C |
